The target in test [1] is T1, Recombinant human NK3 (hNK3) receptor (Homo sapiens, UniProt P29371).
T1 construct: expressed in transfected cells
T1 sequence (P29371 1-465): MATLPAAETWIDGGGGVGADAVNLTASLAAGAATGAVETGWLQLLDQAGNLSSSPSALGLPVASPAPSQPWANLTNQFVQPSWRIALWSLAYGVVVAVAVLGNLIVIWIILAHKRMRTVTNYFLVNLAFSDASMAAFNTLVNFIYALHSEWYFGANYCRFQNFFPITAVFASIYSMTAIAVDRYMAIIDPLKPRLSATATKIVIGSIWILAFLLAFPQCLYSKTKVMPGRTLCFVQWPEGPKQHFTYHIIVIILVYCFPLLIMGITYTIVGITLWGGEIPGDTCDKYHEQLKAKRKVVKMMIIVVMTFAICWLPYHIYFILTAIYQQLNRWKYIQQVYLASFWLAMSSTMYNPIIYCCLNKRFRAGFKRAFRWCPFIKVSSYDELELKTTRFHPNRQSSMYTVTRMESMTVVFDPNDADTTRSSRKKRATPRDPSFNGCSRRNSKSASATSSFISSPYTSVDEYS
The test can be described thus: NK3 receptor binding, [3H]SR142801 displacement, membrane preparations. The following applies: second value of the cell pKi NK1/NK3; hNK3 receptor, [3H]SR142801. An outline of the steps:
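Buffer: Tris-HCl 50 mM pH 7.4, BSA 0.1%, MnCl2 4 mM, phosphoramidon 1 μM. ~2.5 μg membrane/well, 90 min RT. NSB with SB222200 (10 μM). Vacuum filtration over 0.3% PEI-treated GF/C, cold Tris/BSA washes, scintillation count; duplicates, ≥2 experiments.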

In test [2] the target is human NK1 receptor (Homo sapiens, UniProt P25103). The test is described as follows: NK1 receptor binding, [3H]substance P displacement, CHO cell membranes. To be noted: first value of the cell pKi NK1/NK3; human NK1 receptor, [3H]substance P.
Chain of human NK1 receptor (P25103 whole entry): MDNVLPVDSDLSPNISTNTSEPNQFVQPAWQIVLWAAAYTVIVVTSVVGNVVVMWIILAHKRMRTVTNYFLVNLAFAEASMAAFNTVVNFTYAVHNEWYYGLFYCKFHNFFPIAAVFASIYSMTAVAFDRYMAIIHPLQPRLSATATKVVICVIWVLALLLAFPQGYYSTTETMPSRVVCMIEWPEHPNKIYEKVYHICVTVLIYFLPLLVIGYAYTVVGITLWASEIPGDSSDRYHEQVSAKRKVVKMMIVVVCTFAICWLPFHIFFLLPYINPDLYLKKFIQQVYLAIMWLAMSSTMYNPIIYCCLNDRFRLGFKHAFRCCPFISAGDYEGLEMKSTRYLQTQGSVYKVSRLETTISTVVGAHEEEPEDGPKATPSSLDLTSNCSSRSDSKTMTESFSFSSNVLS

Consider 21 molecules from patent US8404708B2, “Dual NK1/NK3 receptor antagonists” (Hoffmann-La Roche Inc., priority 2004, dated 2013).

For orientation: Ki means a measure of affinity in units of concentration, obtained from inhibition or displacement.

For `CN(C(=O)C(C)(C)c1cc(C(F)(F)F)cc(C(F)(F)F)c1)c1cnc(NCCS(C)(=O)=O)cc1-c1ccccc1Cl` [Example 89, 2-(3,5-Bis-trifluoromethyl-phenyl)-N-[4-(2-chloro-phenyl)-6-(2-methanesulfonyl-ethylamino)-pyridin-3-yl]-N-methyl-isobutyramide], the Ki in test [1] was 3.24 nM; in test [2], 0.49 nM.

With `CC(=O)NCCNc1cc(-c2ccccc2Cl)c(N(C)C(=O)C(C)(C)c2cc(C(F)(F)F)cc(C(F)(F)F)c2)cn1` [Example 90, N-[6-(2-Acetylamino-ethylamino)-4-(2-chloro-phenyl)-pyridin-3-yl]-2-(3,5-bis-trifluoromethyl-phenyl)-N-methyl-isobutyramide], the Ki in test [1] is 6.03 nM; in test [2], 1.78 nM.

In the case of `CN(C(=O)C(C)(C)c1cc(C(F)(F)F)cc(C(F)(F)F)c1)c1cnc(N[C@H]2CC[C@H](O)CC2)cc1-c1ccc(Cl)cc1Cl` [Example 91, trans-2-(3,5-Bis-trifluoromethyl-phenyl)-N-[4-(2,4-dichloro-phenyl)-6-(4-hydroxy-cyclohexylamino)-pyridin-3-yl]-N-methyl-isobutyramide], the Ki is 5.62 nM in test [1] and 2.45 nM in test [2].

In the case of `Cc1cc(F)ccc1-c1cc(N[C@H]2CC[C@H](O)CC2)ncc1N(C)C(=O)C(C)(C)c1cc(C(F)(F)F)cc(C(F)(F)F)c1` [Example 92, trans-2-(3,5-Bis-trifluoromethyl-phenyl)-N-[4-(4-fluoro-2-methyl-phenyl)-6-(4-hydroxy-cyclohexylamino)-pyridin-3-yl]-N-methyl-isobutyramide], the Ki in test [1] was 21.4 nM; in test [2], 1.02 nM.

For `Cc1cc(F)ccc1-c1cc(N2CCC[C@@H]2CO)ncc1N(C)C(=O)C(C)(C)c1cc(C(F)(F)F)cc(C(F)(F)F)c1` [Example 93, (R)-2-(3,5-Bis-trifluoromethyl-phenyl)-N-[4-(4-fluoro-2-methyl-phenyl)-6-(2-hydroxymethyl-pyrrolidin-1-yl)-pyridin-3-yl]-N-methyl-isobutyramide], the Ki in test [1] is 7.41 nM; in test [2] it was 1.12 nM.

On to `CN(C(=O)C(C)(C)c1cc(C(F)(F)F)cc(C(F)(F)F)c1)c1cnc(N2CCC[C@@H]2CO)cc1-c1ccc(Cl)cc1Cl` [Example 94, (R)-2-(3,5-Bis-trifluoromethyl-phenyl)-N-[4-(2,4-dichloro-phenyl)-6-(2-hydroxymethyl-pyrrolidin-1-yl)-pyridin-3-yl]-N-methyl-isobutyramide], for which the Ki in test [1] was 14.8 nM; in test [2], 4.27 nM.

For `CN(C(=O)C(C)(C)c1cc(C(F)(F)F)cc(C(F)(F)F)c1)c1cnc(N2CCC[C@@H]2CO)cc1-c1ccc(Cl)c(Cl)c1` [Example 95, (R)-2-(3,5-Bis-trifluoromethyl-phenyl)-N-[4-(3,4-dichloro-phenyl)-6-(2-hydroxymethyl-pyrrolidin-1-yl)-pyridin-3-yl]-N-methyl-isobutyramide], the Ki in test [1] was 9.33 nM; in test [2] it was 3.8 nM.

Consider `CN(C(=O)C(C)(C)c1cc(C(F)(F)F)cc(C(F)(F)F)c1)c1cnc(N2CC(O)C2)cc1-c1ccccc1Cl` [Example 98, 2-(3,5-Bis-trifluoromethyl-phenyl)-N-[4-(2-chloro-phenyl)-6-(3-hydroxy-azetidin-1-yl)-pyridin-3-yl]-N-methyl-isobutyramide], for which the Ki was 3.47 nM in test [1] and 0.692 nM in test [2].

Consider `CC(=O)N[C@H]1CCN(c2cc(-c3ccc(F)cc3C)c(N(C)C(=O)C(C)(C)c3cc(C(F)(F)F)cc(C(F)(F)F)c3)cn2)C1` [Example 99, (S)-N-[6-(3-Acetylamino-pyrrolidin-1-yl)-4-(4-fluoro-2-methyl-phenyl)-pyridin-3-yl]-2-(3,5-bis-trifluoromethyl-phenyl)-N-methyl-isobutyramide], for which the Ki is 55 nM in test [1] and 0.813 nM in test [2].

`CC(=O)N[C@@H]1CCN(c2cc(-c3ccc(F)cc3C)c(N(C)C(=O)C(C)(C)c3cc(C(F)(F)F)cc(C(F)(F)F)c3)cn2)C1` [Example 100, (R)-N-[6-(3-Acetylamino-pyrrolidin-1-yl)-4-(4-fluoro-2-methyl-phenyl)-pyridin-3-yl]-2-(3,5-bis-trifluoromethyl-phenyl)-N-methyl-isobutyramide]: the results for the Ki in test [1] and in test [2] were 20 nM and 1.82 nM, respectively.

Take `CC(=O)N(C)[C@@H]1CCN(c2cc(-c3ccc(F)cc3C)c(N(C)C(=O)C(C)(C)c3cc(C(F)(F)F)cc(C(F)(F)F)c3)cn2)C1` [Example 101, (R)-N-[6-[3-(Acetyl-methyl-amino)-pyrrolidin-1-yl]-4-(4-fluoro-2-methyl-phenyl)-pyridin-3-yl]-2-(3,5-bis-trifluoromethyl-phenyl)-N-methyl-isobutyramide]: the Ki in test [1] is 9.33 nM; in test [2], 1.7 nM.

`CCN(C(C)=O)[C@@H]1CCN(c2cc(-c3ccc(F)cc3C)c(N(C)C(=O)C(C)(C)c3cc(C(F)(F)F)cc(C(F)(F)F)c3)cn2)C1` [Example 102, (R)-N-[6-[3-(Acetyl-ethyl-amino)-pyrrolidin-1-yl]-4-(4-fluoro-2-methyl-phenyl)-pyridin-3-yl]-2-(3,5-bis-trifluoromethyl-phenyl)-N-methyl-isobutyramide]: the results for the Ki in test [1] and in test [2] were 13.2 nM and 1.95 nM, respectively.

With `Cc1cc(F)ccc1-c1cc(N2CC[C@H](N)C2)ncc1N(C)C(=O)C(C)(C)c1cc(C(F)(F)F)cc(C(F)(F)F)c1` [Example 103, (S)-N-[6-(3-Amino-pyrrolidin-1-yl)-4-(4-fluoro-2-methyl-phenyl)-pyridin-3-yl]-2-(3,5-bis-trifluoromethyl-phenyl)-N-methyl-isobutyramide], the Ki in test [1] is 15.8 nM; in test [2] it was 1.66 nM.

Consider `Cc1cc(F)ccc1-c1cc(N2CC[C@H](NS(C)(=O)=O)C2)ncc1N(C)C(=O)C(C)(C)c1cc(C(F)(F)F)cc(C(F)(F)F)c1` [Example 104, (S)-2-(3,5-Bis-trifluoromethyl-phenyl)-N-[4-(4-fluoro-2-methyl-phenyl)-6-(3-methanesulfonylamino-pyrrolidin-1-yl)-pyridin-3-yl]-N-methyl-isobutyramide], for which the Ki in test [1] was 6.76 nM; in test [2], 1.62 nM.

Consider `Cc1cc(F)ccc1-c1cc(N2CC[C@H](N(C)S(C)(=O)=O)C2)ncc1N(C)C(=O)C(C)(C)c1cc(C(F)(F)F)cc(C(F)(F)F)c1` [Example 105, (S)-2-(3,5-Bis-trifluoromethyl-phenyl)-N-{4-(4-fluoro-2-methyl-phenyl)-6-[3-(methanesulfonyl-methyl-amino)-pyrrolidin-1-yl]-pyridin-3-yl}-N-methyl-isobutyramide], for which the Ki in test [1] was 5.25 nM; in test [2], 1.02 nM.

For `CCN([C@H]1CCN(c2cc(-c3ccc(F)cc3C)c(N(C)C(=O)C(C)(C)c3cc(C(F)(F)F)cc(C(F)(F)F)c3)cn2)C1)S(C)(=O)=O` [Example 106], the Ki in test [1] is 4.68 nM; in test [2] it was 0.589 nM.

Turning to `CC(=O)N(C)[C@H]1CCN(c2cc(-c3ccc(F)cc3C)c(N(C)C(=O)C(C)(C)c3cc(C(F)(F)F)cc(C(F)(F)F)c3)cn2)C1` [Example 107, (S)-N-[6-[3-(Acetyl-methyl-amino)-pyrrolidin-1-yl]-4-(4-fluoro-2-methyl-phenyl)-pyridin-3-yl]-2-(3,5-bis-trifluoromethyl-phenyl)-N-methyl-isobutyramide], the Ki in test [1] is 11.7 nM; in test [2], 2.34 nM.

With `CCN(C(C)=O)[C@H]1CCN(c2cc(-c3ccc(F)cc3C)c(N(C)C(=O)C(C)(C)c3cc(C(F)(F)F)cc(C(F)(F)F)c3)cn2)C1` [Example 108, (S)-N-[6-[3-(Acetyl-ethyl-amino)-pyrrolidin-1-yl]-4-(4-fluoro-2-methyl-phenyl)-pyridin-3-yl]-2-(3,5-bis-trifluoromethyl-phenyl)-N-methyl-isobutyramide], the Ki in test [1] was 8.91 nM; in test [2], 2.45 nM.

Regarding `Cc1cc(F)ccc1-c1cc(N2CC[C@H](O)C2)ncc1N(C)C(=O)C(C)(C)c1cc(C(F)(F)F)cc(C(F)(F)F)c1` [Example 109, (S)-2-(3,5-Bis-trifluoromethyl-phenyl)-N-[4-(4-fluoro-2-methyl-phenyl)-6-(3-hydroxy-pyrrolidin-1-yl)-pyridin-3-yl]-N-methyl-isobutyramide], the Ki in test [1] is 13.5 nM; in test [2] it was 2.04 nM.

As for `Cc1cc(F)ccc1-c1cc(N2CCC(=O)C2)ncc1N(C)C(=O)C(C)(C)c1cc(C(F)(F)F)cc(C(F)(F)F)c1` [Example 111, 2-(3,5-Bis-trifluoromethyl-phenyl)-N-[4-(4-fluoro-2-methyl-phenyl)-6-(3-oxo-pyrrolidin-1-yl)-pyridin-3-yl]-N-methyl-isobutyramide], the results for the Ki in test [1] and in test [2] were 4.07 nM and 2.09 nM, respectively.

With `CN(C(=O)C(C)(C)c1cc(C(F)(F)F)cc(C(F)(F)F)c1)c1cnc(N2CCC(N)CC2)cc1-c1ccccc1Cl` [Example 112, N-[4-Amino-4′-(2-chloro-phenyl)-3,4,5,6-tetrahydro-2H-[1,2′]bipyridinyl-5′-yl]-2-(3,5-bis-trifluoromethyl-phenyl)-N-methyl-isobutyramide], the results for the Ki in test [1] and in test [2] were 5.5 nM and 0.562 nM, respectively.
